# Experimental data published in patent US7507859B2, “Functional synthetic molecules and macromolecules for gene delivery” (Fifth Base LLC, priority 2003, dated 2009).
# Experiments:
# [1] = Gel formation in DMSO; type: physicochemical; settings: sonication (30 sec) or heating to 60 C for 5 minutes and cooling to room temperature
# Method: The gels can be produced by either 1) sonication (30 sec) or by heating the suspensions to 60 C for 5 minutes and cooling to room temperature.
# [2] = tested on: DNA; assay: Ethidium bromide-DNA fluorescence quenching exclusion assay; type: binding; settings: 2 mM HEPES, 150 mM NaCl, 10 μm EDTA, pH 7.4; 60 minutes incubation; triplicate
# Method: Exclusion assay (adapted from; A. J. Geall, I. S. Blagbrough, Journal of Pharmaceutical and Biomedical Analysis 22 (2000) 849-859)
# (§1) Five μg (5 μl of 1 mg/mL solution) of DNA and varying amount of amphiphiles (dependent on the Amphiphile/DNA ratio required) were diluted to 1000 μL with buffer (2 mM HEPES, 150 mM NaCl, 10 μm EDTA, pH 7.4). The solutions were mixed on a bench top vortex and incubated for 60 minutes at ambient temperature. Each solution was then diluted to 3 mL with buffer (2 mM HEPES, 150 mM NaCl, 10 μm EDTA, pH 7.4). Immediately prior to the analysis, 3 μL of Eth Br solution (0.6 mg/ml, 1.3 mM, effectively present in excess) was added, the sample was mixed on a bench top vortex, and the fluorescence measured. The fluorescence was expressed as the percentage of the maximum fluorescence signal when EthBr was bound to the DNA in the absence of amphiphile. Assays were run in triplicate. […] Compound 30a bound DNA and displaced EthBr.
# [3] = tested on: chinese hamster ovary (CHO) cells; assay: B-galactosidase transfection assay; type: cell-based; settings: varying concentrations of lipid and DNA, triplicate, 96 well plates, chemiluminescent reporter
# Method: Transfection assays were performed using the well established B-galactosidase transfection assay. In these experiments the B-galactosidase gene is transfected into cells. Next, the expressed enzyme then cleaves a chemiluminescent reporter that is detected. The assays are conducted with chinese hamster ovary (CHO) cells following a standard lipid transfection procedure. The procedure is performed on varying concentrations of lipid and DNA in triplicate in 96 well plates.
# [4] = tested on: DNA; assay: Exclusion assay after addition of an esterase (DNA release); type: biochemical; settings: esterase added to the amphiphile-DNA solution; EthBr intercalates again
# Method: as §1
Gel formation in DMSO [1],DNA binding and displacement of EtBr [2],Compound,Transfection of the B-galactosidase gene [3],DNA release from the amphiphile after esterase cleavage of the ester linkages [4]
form gels in DMSO,–,"CCCCCCCCCCCCCCCC(=O)O[C@@H]1[C@H](OC(=O)CCCCCCCCCCCCCCC)[C@@H](CO)O[C@H]1n1ccc(=O)[nH]c1=O [2′,3′dipalmitoyl uridine, 2′,3′palmitoyl uridine]",–,–
–,bound DNA and displaced EtBr,"C[N+](C)(C)CC(COC(=O)NCCCCCCCCCCCC(=O)OCC1CC(=O)Oc2cc(O)c(Br)cc21)OC(=O)NCCCCCCCCCCCC(=O)OCC1CC(=O)Oc2cc(O)c(Br)cc21.[I-] (stereo not shown) [Compound 26, {2,3-Bis-[11-(6-bromo-7-hydroxy-2-oxo-chroman-4-ylmethoxycarbonyl)-undecylcarbamoyloxy]-propyl}-trimethyl-ammonium iodide]",–,–
–,bound DNA and displaced EtBr,"C[N+](C)(C)CC(COC(=O)CCCCCCCCCCC(=O)OCc1ccccc1)OC(=O)CCCCCCCCCCC(=O)OCc1ccccc1.[I-] (stereo not shown) [Compound 30a, [2,3-Bis-(11-benzyloxycarbonyl-undecanoyloxy)-propyl]-trimethyl-ammonium; iodide]",transfected the B-galactosidase gene,releasing the DNA from the amphiphile
–,did not bind DNA and displace EthBr,"C[N+](C)(C)CC(COC(=O)CCCCCCCCCCC(=O)O)OC(=O)CCCCCCCCCCC(=O)O.[I-] (stereo not shown) [Compound 35, [2,3-Bis-(11-carboxy-undecanoyloxy)-propyl]-trimethyl-ammonium; iodide]",minimal transfection activity,–
–,–,"C[N+](C)(C)CC(COC(=O)CCCCCCCCCCCOCc1ccccc1)OC(=O)CCCCCCCCCCCOCc1ccccc1.[I-] (stereo not shown) [Compound 40, [2,3-Bis-(12-benzyloxy-dodecanoyloxy)-propyl]-trimethyl-ammonium; iodide]",transfected the B-galactosidase gene,–
–,bound DNA and displaced EtBr,CCCCCCCCCCCCCC(=O)OCC(COC(=O)CCCCCCCCCCCCC)OC(=O)CCC(=O)OCC(COC(=O)CCC(=O)OC(COC(=O)CCCCCCCCCCCCC)COC(=O)CCCCCCCCCCCCC)OC(=O)CCC(=O)OC(COC(=O)CCC(=O)OCC[N+](C)(C)C)COC(=O)CCC(=O)OCC[N+](C)(C)C [Compound 85],–,–
–,bound DNA and displaced EtBr,Trimethylamino-[G0]-PGLSA dendrimer iodide [Compound 44],–,–
–,bound DNA and displaced EtBr,Trimethylamino-[G1]-PGLSA dendrimer iodide [Compound 47],–,–

Compound,Gel formation in DMSO [1],DNA binding and displacement of EtBr [2],Transfection of the B-galactosidase gene [3],DNA release from the amphiphile after esterase cleavage of the ester linkages [4]
"C[N+](C)(C)CC(COC(=O)CCCCCCCCCCC(=O)OCc1ccccc1[N+](=O)[O-])OC(=O)CCCCCCCCCCC(=O)OCc1ccccc1[N+](=O)[O-].[I-] (stereo not shown) [Compound 30b, {2,3-Bis-[11-(2-nitro-benzyloxycarbonyl)-undecanoyloxy]-propyl}-trimethyl-ammonium; iodide]",–,bound DNA and displaced EtBr,–,–
"CC(C)(C)OC(=O)CCCCCCCCCCC(=O)OCC(C[N+](C)(C)C)OC(=O)CCCCCCCCCCC(=O)OC(C)(C)C.[I-] (stereo not shown) [Compound 34, [2,3-Bis-(11-tert-butoxycarbonyl-undecanoyloxy)-propyl]-trimethyl-ammonium; iodide]",–,bound DNA and displaced EtBr,–,releasing the DNA from the amphiphile
"CC(=O)OCC(C[N+](C)(C)C)OC(C)=O.[I-] (stereo not shown) [Compound 36, (2,3-Diacetoxy-propyl)-trimethyl-ammonium; iodide]",–,did not bind DNA and displace EthBr,minimal transfection activity,–
